pKd: −log10 of the molar value. Where a SMILES comes first, the peptide text is derived from it.
Molecular target: T1, DppA (E. coli dipeptide binding protein) (Escherichia coli, UniProt P23847)
T1 sequence (P23847 29-535): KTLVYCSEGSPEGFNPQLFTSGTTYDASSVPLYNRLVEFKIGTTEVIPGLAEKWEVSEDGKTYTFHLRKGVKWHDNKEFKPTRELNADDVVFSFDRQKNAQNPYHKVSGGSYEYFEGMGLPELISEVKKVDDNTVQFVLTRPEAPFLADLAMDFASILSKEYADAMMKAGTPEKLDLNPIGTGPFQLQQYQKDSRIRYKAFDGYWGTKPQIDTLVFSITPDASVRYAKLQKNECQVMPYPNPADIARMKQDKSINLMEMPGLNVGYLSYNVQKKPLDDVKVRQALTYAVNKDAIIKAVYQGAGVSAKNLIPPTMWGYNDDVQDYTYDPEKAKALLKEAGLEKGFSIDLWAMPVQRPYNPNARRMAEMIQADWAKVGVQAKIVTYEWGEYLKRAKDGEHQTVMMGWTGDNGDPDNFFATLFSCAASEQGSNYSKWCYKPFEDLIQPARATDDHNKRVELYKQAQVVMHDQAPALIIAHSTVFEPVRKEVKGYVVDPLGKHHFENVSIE
Experiment: isothermal titration calorimetry
Text: isothermal titration calorimetry on DppA (E. coli dipeptide binding protein)

pKd | Compound
7.43 | C[C@H](N)C(=O)N[C@@H](C)C(=O)O [AA, Alanine–Alanine (A–A)] (H-Ala-Ala-OH)
6.45 | C[C@H](N)C(=O)N[C@@H](Cc1ccccc1)C(=O)O [AF, Alanine–Phenylalanine (A–F)]

From paper PMC8566422, “Thermodynamics of semi-specific ligand recognition: the binding of dipeptides to the E.coli dipeptide binding protein DppA” (European Biophysics Journal, 2021)
